Holding throughout (format): cell-based
The subject of experiment [1] is Breast Cancer (MCF-7) Cells. Put plainly: MTT cell viability assay, MCF-7. The following applies: Homo sapiens. An excerpt:
An MTT assay was used to determine the viability of the cells under examination in the desired medium. The mitochondrial dehydrogenase enzyme of the viable cells has a key role in the conversion of the yellow water-soluble substrate 3-(4,5-dimethylthiazol-2-y1)-2,5 diphenyl tetrazolium bromide (MTT) into a dark blue formazan product that is insoluble in water. The anticancer activity of the novel synthetic derivatives (4a–4k) was investigated through an MTT assay, with small modifications following the already published protocols against cancer cell lines (HeLa and MCF-7), using cisplatin as a reference drug. The cytotoxic effect of the tested compounds at 100 µM concentration was determined and represented as the percent growth inhibition compared with the untreated control cells. The first series comprised dihydropyridines analogous from 4a–4f with various substitution patterns on the phenyl ring. […] It is presumed that the 1-naphthyl containing compound 4c was locked in a configuration that is not favorable for an interaction with amino acid residues.
The anti-proliferative activity of the synthesized compounds was determined in MCF-7 and HeLa cells by an MTT cell viability assay, as described earlier. Briefly, we seeded 1 × 10^4 cells/well in a sterile 96-well culture microtiter plate and incubated them in a 5% CO2 incubator at 37 °C for 24 h. […] After 24 h, the cells were treated with 0.2 mg/mL of MTT reagent for 4 h. We added 10% acidified SDS (sodium dodecyl sulfate) solubilizing solution in propanol (1:1) to solubilize the formazan crystals. After 30 min at 37 °C, the plate was placed on a gyratory shaker to completely dissolve the formazan crystals. The plate was placed on a microplate reader to measure the optical density at 570 nm. The IC50 values were calculated from three independent experiments as previously reported.
(In general: Formazan colour is commonly taken as a measure of viable cells.)

For the next experiment, the system named is normal BHK-21 cells. Put plainly: MTT assay on normal cells. The following applies: Mesocricetus auratus, rapidly growing non-cancerous cells.
Another experiment has as its system MCF-7 cells. Put plainly: Cell cycle analysis by flow cytometry (PI). The following applies: 24 h, IC50 and 2 × IC50. From the text: The progression of the cell cycle is started by a cascade of intracellular signaling pathways to drive progression from the G0 phase to the G1 phase. The mammalian cell cycle involves an overexpression of D-type cyclins during the progression from the G0/G1 to the S-phase and eventually contributes to the development of cancer. Progression is controlled by D-type cyclins after binding with cyclin-dependent kinases (CDKs) and negatively controlled by binding to CDK inhibitors. CDK4/6 is involved in the G1/S transition of the cell cycle and has an important role in breast cancer. Retinoblastoma tumor suppressor protein (pRb) is deactivated through a CDK4/6-mediated phosphorylation reaction. In fact, cyclin D1/CDK4/6 is a mandatory controller of pRb phosphorylation. This phosphorylation deactivates the pRb that leads to cell proliferation.
PI was used as a fluorescent probe by flow cytometry through small modifications in a published method. The difference in DNA content between the G0/G1, S (synthesis), and G2/M phases can be compared with a control sample. The assay was conducted by seeding 3 × 10^5 cells/well and incubating them for 24 h in a CO2 incubator at 37 °C. […] After harvesting the cells as directed, these cells were centrifuged at 3000 rpm for 5 min and washed with sterile PBS. […] The obtained results were analyzed by using the BD Accuri^TM C6 and GraphPad Prism 5.01 software.

In another experiment the test system is HeLa cells. Description: Microscopic evaluation of ROS generation (H2DCF-DA). To be noted: IC50 and 2 × IC50, versus control. An excerpt:
The production of reactive oxygen species (ROS) has been an extensively researched topic in medicinal chemistry due to their involvement in numerous biochemical phases of health and disease. In a biological system, redox-sensitive fluorogenic materials such as 2′,7′-dichlorodihydrofluorescein-diacetate (DCFH2-DA) are commonly used to investigate the production of ROS during oxidative stress. It easily penetrates through the cell membrane, where esterase enzyme hydrolyzes the acetate group to a more hydrophilic group, which further oxidizes in the cytoplasmic region to give rise to a highly fluorescent product. In this study, the HeLa cells were used to investigate the production of ROS. The non-fluorescent material 2′,7′-dichlorodihydrofluorescein (DCFH2) converts into the fluorescent 2′,7′-dichlorofluorescein (DCF) under intracellular oxidative stress.
The production of reactive oxygen species (ROS) in compound 4d-treated HeLa cells was observed by applying a published protocol with some modifications. Cells at a density of 2 × 10^5 cells/well/mL were grown on round coverslips in a 24-well plate and kept in an incubator having humid 5% CO2 and 95% air at 37 °C. […] Cells were gently washed with PBS to remove excess dye, and images were captured at a magnification of 20× using excitation/emission filters at 488/530 nm with the help of a fluorescence microscope (Nikon ECLIPSE Ni–U).

In experiment [1] (MCF7, 100 µM, 24 h), `N#CC1=C(N)N(Cc2ccccc2)C(N)=C(C#N)C1c1ccc2ccccc2c1` [Compound 4d, 2,6-Diamino-1-benzyl-4-(naphthalen-2-yl)-1,4-dihydropyridine-3,5-dicarbonitrile] returned an inhibition at 100 µM of 85.8%. For the same molecule, the IC50 in experiment [1] (MCF7, unit given, read-out: Breast Cancer (MCF-7) Cells IC50 Values ± SEM) was 38.7 ± 2.31 µM; with normal BHK-21 cells, 71.1 ± 3.18 µM. For the same molecule, the “phase of cell cycle arrest” value with MCF-7 cells is “G0/G1 phase”. The “production of ROS” value in the experiment on HeLa cells was “dose-dependent increase”.

As a reminder, the inhibition is the share of the control response that was lost under treatment. For orientation: IC50 means the midpoint of a concentration-inhibition curve.

The record behind these values is publication PMC9570995, “Design, Synthesis, and Biological Evaluation of Novel Dihydropyridine and Pyridine Analogs as Potent Human Tissue Nonspecific Alkaline Phosphatase Inhibitors with Anticancer Activity: ROS and DNA Damage-Induced Apoptosis” (Molecules, 2022).
